Experimental data: US8710043B2, “TRPM8 antagonists and their use in treatments” (Amgen Inc., priority 2011, dated 2014)
Structures can show the parent of a compound that is named as a salt.

Target: T1, human TRPM8 (Homo sapiens, UniProt Q7Z2W7)
T1 construct: expressed in transfected cells; host or cells: Chinese hamster ovary (CHO) cells, T-REx tetracycline-inducible system, co-transfected with aequorin
Assay: Luminescence readout assay for measuring intracellular calcium, icilin activation
Format: cell-based
Settings: CHO cells expressing human TRPM8, aequorin luminescence, 1 μM icilin activation; read-out: hTRPM8 IC50
Summary of the method: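 The read-out was luminescence reporting intracellular calcium, recorded by a CCD-based luminometer. Compounds were preincubated for 2.5 min before agonist challenge with 1 μM icilin. Human TRPM8 was expressed in a stable T-REx CHO line, induced with 0.5 μg/mL tetracycline the day before.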

T1 sequence (Q7Z2W7 whole entry): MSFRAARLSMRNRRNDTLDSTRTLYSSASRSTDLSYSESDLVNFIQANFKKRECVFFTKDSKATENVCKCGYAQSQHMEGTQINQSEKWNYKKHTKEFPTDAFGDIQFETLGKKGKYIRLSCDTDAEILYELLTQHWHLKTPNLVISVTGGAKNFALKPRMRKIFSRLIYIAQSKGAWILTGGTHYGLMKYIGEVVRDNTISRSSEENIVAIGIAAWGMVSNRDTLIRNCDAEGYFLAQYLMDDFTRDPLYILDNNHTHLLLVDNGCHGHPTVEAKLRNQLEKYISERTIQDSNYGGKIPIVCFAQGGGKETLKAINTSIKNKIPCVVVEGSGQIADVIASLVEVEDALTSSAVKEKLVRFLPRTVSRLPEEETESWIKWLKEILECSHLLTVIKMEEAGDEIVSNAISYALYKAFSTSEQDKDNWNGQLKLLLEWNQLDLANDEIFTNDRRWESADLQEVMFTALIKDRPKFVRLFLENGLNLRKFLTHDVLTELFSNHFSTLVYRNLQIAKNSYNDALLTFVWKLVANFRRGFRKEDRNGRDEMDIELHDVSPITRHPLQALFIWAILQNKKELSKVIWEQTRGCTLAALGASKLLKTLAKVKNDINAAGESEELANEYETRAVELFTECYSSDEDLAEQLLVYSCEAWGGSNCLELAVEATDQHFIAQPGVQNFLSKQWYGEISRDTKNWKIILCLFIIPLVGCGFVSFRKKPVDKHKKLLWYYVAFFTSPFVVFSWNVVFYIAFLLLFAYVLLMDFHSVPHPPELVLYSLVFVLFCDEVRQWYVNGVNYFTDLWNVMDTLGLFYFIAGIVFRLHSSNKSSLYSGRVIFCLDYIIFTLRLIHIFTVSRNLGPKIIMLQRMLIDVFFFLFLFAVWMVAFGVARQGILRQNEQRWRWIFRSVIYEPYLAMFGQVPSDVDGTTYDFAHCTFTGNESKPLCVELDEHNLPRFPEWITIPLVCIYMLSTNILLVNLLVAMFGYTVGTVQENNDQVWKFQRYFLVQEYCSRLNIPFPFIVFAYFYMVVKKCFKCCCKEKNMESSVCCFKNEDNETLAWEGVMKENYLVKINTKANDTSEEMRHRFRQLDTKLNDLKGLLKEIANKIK

SMILES | IC50 [nM]
O=C(N[C@@H](c1ccc(C(F)(F)F)cc1)c1ncccc1C(F)(F)F)c1ccc2c(c1)C(=O)N(c1ccccn1)C2=O [Example 99, (S)-1,3-dioxo-2-(pyridin-2-yl)-N-((4-(trifluoromethyl)phenyl)(3-(trifluoromethyl)pydin-2-yl)methyl)isoindoline-5-carboxamide 2,2,2-trifluoroacetate] | 129
O=C1Cc2cc(C(=O)N[C@@H](c3ccc(C(F)(F)F)cc3)c3ncccc3C(F)(F)F)ccc2N1 [Example 56, (S)-2-oxo-N-((4-(trifluoromethyl)phenyl)(3-(trifluoromethyl)pyridin-2-yl)methyl)indoline-5-carboxamide] | 9.2
COc1ccc(C(=O)N[C@@H](c2ccc(F)cc2)c2ncccc2C(F)(F)F)cn1 [Example 124, (S)-N-((4-fluorophenyl)(3-(trifluoromethyl)pyridin-2-yl)methyl)-6-methoxynicotinamide] | 190
CCCc1cccnc1[C@@H](NC(=O)c1ccc(=O)[nH]c1)c1ccc(C(F)(F)F)cc1 [Example 267, (S)-6-Oxo-N-((3-propylpyridin-2-yl)(4-(trifluoromethyl)-phenyl)methyl)-1,6-dihydropyridine-3-carboxamide] | 9.9
O=C(NC(c1ccc(C(F)(F)F)cc1)c1ncccc1F)c1ccc2nccnc2c1 (stereo not shown) [Example 202, N-((3-fluoropyridin-2-yl)(4-(trifluoromethyl)phenyl)methyl)quinoxaline-6-carboxamide] | 35.2
O=C(NC(c1ccc(OC(F)(F)F)c(F)c1)c1c(F)cccc1F)c1ccc(=O)[nH]c1 (stereo not shown) [Example 418, N-((2,6-difluorophenyl)(3-fluoro-4-(trifluoromethoxy)phenyl)methyl)-6-oxo-1,6-dihydropyridine-3-carboxamide] | 65
O=C(N[C@@H](c1ccc(OC(F)(F)F)cc1)c1ncccc1F)c1cccs1 [Example 374, (S)-N-((3-fluoropyridin-2-yl)(4-(trifluoromethoxy)phenyl)methyl)thiophene-2-carboxamide] | 52.4
COc1ccc(C(=O)N[C@@H](c2ccc(C(F)(F)F)cc2)c2ncccc2F)cn1 [Example 46, (S)-N-((3-fluoropyridin-2-yl)(4-(trifluoromethyl)phenyl)methyl)-6-methoxynicotinamide] | 12.3
O=C(N[C@@H](c1ccc(C(F)(F)F)cc1)c1ncccc1F)c1c[nH]c(=O)c(Br)c1 [Example 368, (S)-5-bromo-N-((3-fluoropyridin-2-yl)(4-(trifluoromethyl)phenyl)methyl)-6-oxo-1,6-dihydropyridine-3-carboxamide] | 21
Cn1ccc(C(=O)N[C@@H](c2ccc(C(F)(F)F)cc2)c2ncccc2C(F)(F)F)cc1=O [Example 49, (S)-1-methyl-2-oxo-N-((4-(trifluoromethyl)phenyl)(3-(trifluoromethyl)pyridin-2-yl)methyl)-1,2-dihydropyridine-4-carboxamide] | 127
O=C(N[C@@H](c1cnc2ccc(Cl)cc2c1)c1ncccc1C(F)(F)F)c1ccc2cccnc2c1 [Example 4, (S)-N-((6-chloroquinolin-3-yl)(3-(trifluoromethyl)pyridin-2-yl)methyl)quinoline-7-carboxamide] | 44
Cc1ccc(F)c([C@@H](NC(=O)c2ccc(=O)[nH]c2)c2ccc(C(F)(F)F)cc2)n1 [Example 410, (S)-N-((3-fluoro-6-methylpyridin-2-yl)(4-(trifluoromethyl)phenyl)methyl)-6-oxo-1,6-dihydropyridine-3-carboxamide] | 71.8
COc1ccc(C(=O)N[C@@H](c2ccc(OC(F)(F)F)c(F)c2)c2ncccc2F)[nH]c1=O [Example 404, (S)-N-((3-fluoro-4-(trifluoromethoxy)phenyl)(3-fluoropyridin-2-yl)methyl)-5-methoxy-6-oxo-1,6-dihydropyridine-2-carboxamide] | 3550
COc1ccc(C(=O)N[C@@H](c2ccc(C(F)(F)F)cc2)c2ncccc2C(F)(F)F)cc1 [Example 171, (S)-4-methoxy-N-((4-(trifluoromethyl)phenyl)(3-(trifluoromethyl)pyridin-2-yl)methyl)benzamide] | 17.3
O=C(NC(c1ccc(OC(F)(F)F)c(F)c1)c1cc(F)ccc1F)c1ccc(=O)[nH]c1 (stereo not shown) [Example 414, N-((2,5-difluorophenyl)(3-fluoro-4-(trifluoromethoxy)phenyl)methyl)-6-oxo-1,6-dihydropyridine-3-carboxamide] | 150
O=C(N[C@@H](c1ccc(C(F)(F)F)cc1)c1ncccc1Cl)c1ccc(=O)[nH]c1 [Example 248, (S)-N-((3-chloropyridin-2-yl)(4-(trifluoromethyl)phenyl)methyl)-6-oxo-1,6-dihydropyridine-3-carboxamide 2,2,2-trifluoroacetate] | 11.9
O=C(Cc1ccccn1)N[C@@H](c1ccc(OC(F)(F)F)c(F)c1)c1ncccc1F [Example 288, (S)-N-((3-fluoro-4-(trifluoromethoxy)phenyl)(3-fluoropyridin-2-yl)methyl)-2-(pyridin-2-yl)acetamide] | 139
Cc1cccnc1[C@@H](NC(=O)c1ccc(=O)n(C)c1)c1ccc(C(F)(F)F)cc1 [Example 83, (S)-1-methyl-N-((3-methylpyridin-2-yl)(4-(trifluoromethyl)phenyl)methyl)-6-oxo-1,6-dihydropyridine-3-carboxamide 2,2,2-trifluoroacetate] | 39.2
N#Cc1cccc(C(=O)N[C@@H](c2ccc(C(F)(F)F)cc2)c2ncccc2F)c1 [Example 184, (S)-3-cyano-N-((3-fluoropyridin-2-yl)(4-(trifluoromethyl)phenyl)methyl)benzamide] | 52.9
O=C(NC(c1ccc(OC(F)(F)F)c(F)c1)c1ccc(F)cc1F)c1ccc(=O)[nH]c1 (stereo not shown) [Example 413, N-((2,4-difluorophenyl)(3-fluoro-4-(trifluoromethoxy)phenyl)methyl)-6-oxo-l,6-dihydropyridine-3-carboxamide] | 197
O=C(O)c1cccc(C(=O)N[C@@H](c2ccc(OC(F)(F)F)c(F)c2)c2ncccc2F)n1 [Example 415, (S)-6-(((3-fluoro-4-(trifluoromethoxy)phenyl)(3-fluoropyridin-2-yl)methyl)carbamoyl)picolinic acid trifluoroacetate] | 648

The remaining compounds from weak to strong by IC50, led by results:

IC50 [nM] | SMILES
2680 | Cn1cc(C(=O)N[C@@H](c2cc(F)cc(F)c2)c2ncccc2F)ccc1=O [Example 330, (S)-N-((3,5-difluorophenyl)(3-fluoropyridin-2-yl)methyl)-1-methyl-6-oxo-1,6-dihydropyridine-3-carboxamide]
226 | C=CCc1cccnc1[C@@H](NC(=O)[C@@H](C)c1ccccc1)c1ccc(C(F)(F)F)cc1 [Example 235, (S)-N-((S)-(3-allylpyridin-2-yl)(4-(trifluoromethyl)phenyl)methyl)-2-phenylpropanamide]
125 | CC#Cc1cccnc1[C@@H](NC(=O)c1ccccc1)c1ccc(C(F)(F)F)cc1 [Example 98, (S)-N-((3-(prop-1-yn-1-yl)pyridin-2-yl)(4-(trifluoromethyl)phenyl)methyl)benzamide]
125 | O=C(N[C@@H](c1ccc(C(F)(F)F)cc1)c1ncccc1C(F)(F)F)c1ccc2cccnc2n1 [Example 128, (S)-N-((4-(trifluoromethyl)phenyl)(3-(trifluoromethyl)pyridin-2-yl)methyl)-1,8-naphthyridine-2-carboxamide 2,2,2-trifluoroacetate]
56.4 | CC(=O)Oc1ccc(C(=O)N[C@@H](c2ccc(C(F)(F)F)cc2)c2ncccc2F)cc1N [Example 431, (S)-2-Amino-4-(((3-fluoropyridin-2-yl)(4-(trifluoromethyl)phenyl)methyl)carbamoyl)phenyl Acetate]
45.4 | O=C(N[C@@H](c1ccc(C(F)(F)F)cc1)c1ncccc1F)c1ccc2nnnn2c1 [Example 307, (S)-N-((3-fluoropyridin-2-yl)(4-(trifluoromethyl)phenyl)methyl)tetrazolo[1,5-a]pyridine-6-carboxamide]
41.7 | O=C(N[C@@H](c1ccc(C(F)(F)F)cc1)c1ncccc1C(F)(F)F)c1cccc(Cl)c1 [Example 208, (S)-3-chloro-N-((4-(trifluoromethyl)phenyl)(3-(trifluoromethyl)pyridin-2-yl)methyl)benzamide]
33.1 | Cc1ncoc1C(=O)N[C@@H](c1ccc(C(F)(F)F)cc1)c1ncccc1C(F)(F)F [Example 190, (S)-4-methyl-N-((4-(trifluoromethyl)phenyl)(3-(trifluoromethyl)pyridin-2-yl)methyl)oxazole-5-carboxamide]
32.4 | COc1ncccc1C(=O)N[C@@H](c1ccc(C(F)(F)F)cc1)c1ncccc1C(F)(F)F [Example 29]
20.8 | O=C(N[C@@H](c1ccc(C(F)(F)F)cc1)c1ncccc1F)c1ccc2[nH]c(=O)[nH]c2c1 [Example 177, (S)-N-((3-fluoropyridin-2-yl)(4-(trifluoromethyl)phenyl)methyl)-2-oxo-2,3-dihydro-1H-benzo[d]imidazole-5-carboxamide]
13.2 | Cn1cc(C(=O)N[C@@H](c2ccc(C(F)(F)F)cc2)c2ncccc2Cl)ccc1=O [Example 249, (S)-N-((3-chloropyridin-2-yl)(4-(trifluoromethyl)phenyl)methyl)-1-methyl-6-oxo-1,6-dihydropyridine-3-carboxamide 2,2,2-trifluoroacetate]
10.4 | Cc1cc([C@H](NC(=O)c2ccc(=O)[nH]c2)c2ncccc2F)ccc1OC(F)(F)F [Example 381, (S)-N-((3-fluoropyridin-2-yl)(3-methyl-4-(trifluoromethoxy)phenyl)methyl)-6-oxo-1,6-dihydropyridine-3-carboxamide]
10.3 | Cc1nc2cc(C(=O)N[C@@H](c3ccc(C(F)(F)F)cc3)c3ncccc3F)ccc2[nH]1 [Example 397, (S)-N-((3-fluoropyridin-2-yl)(4-(trifluoromethyl)phenyl)methyl)-2-methyl-1H-benzo[d]imidazole-5-carboxamide]
